Where two headings read alike, the source gives them in different places.
What was measured:
[1] = tested on: Factor VII; experiment: Factor VII activity assay, in vivo liver delivery of FVII siRNA LNP; design: species or system mouse; conditions: for FVII inhib %: ~48 h
Description: Female CD-1 mice are received from Charles River Labs and maintained on standard lab chow and water ad libitum. The animals weigh approximately 25 grams at time of dosing. Formulated siRNA is administered as a single dose at various dose levels intravenously via the lateral tail vein calculated on a (mg siRNAs/kg) basis according to individual animal weights (10 ml/kg injection volume).
Formulated siRNAs are made up of double stranded siRNA sequences specific to a target mRNA sequence, and are in the form of lipid nucleotid particles (LNPs) containing cationic lipids, stealth lipids and neutral lipids, as provided in the Examples below. The siRNA construct for use in targeting the liver is specific to Factor VII. […] FVII siRNA duplex sequence
Formulated Factor VII siRNA is administered as a single dose at various dose levels intravenously via the lateral tail vein calculated on a mg siRNAs/kg basis according to individual animal weights (10 ml/kg injection volume). Approximately 48 h after injection, the mice are euthanized by CO2 inhalation followed by exsanguinations through the vena cava. […] In some cases, small pieces (˜50 mg) of liver are collected and snap frozen in liquid nitrogen for follow up mRNA quantitation.
An assay standard curve is prepared using pooled plasma aliquots from the vehicle control animals.

[2] = pKa of the lipid by TNS fluorescence; assay type: physicochemical
Description: Unless explicitly indicated otherwise, all pKas referred to herein are measured in water at standard temperature and pressure. Also, unless otherwise indicated, all references to pKa are references to pKa measured using the following technique.
2 mM solution of lipid in ethanol are prepared by weighing the lipid and then dissolving in ethanol.
This is done with all eight buffers.
Priority: Column priority • Carriage Speed: Normal • Auto read: Off
The normalized fluorescence intensity vs. pH chart is then plotted in the Microsoft Excel software. The eight points are connected with a smooth line.
The pKa determined using this method is precise to about 0.2 pKa units.

[3] = Particle size and PDI by dynamic light scattering (Malvern Zetasizer); assay type: physicochemical
Description: Unless indicated otherwise, all sizes referred to herein are the average sizes (diameters) of the fully formed nanoparticle, as measured by dynamic light scattering on a Malvern Zetasizer. The nanoparticle sample is diluted in phosphate buffered saline (PBS) so that the count rate is approximately 200-400 kcts. The data is presented as a weighted average of the intensity measure.
The acronym PDI stands for polydispersity index. Unless indicated otherwise, all PDIs referred to herein are the PDI of the fully formed nanoparticle, as measured by dynamic light scattering on a Malvern Zetasizer. The nanoparticle sample is diluted in phosphate buffered saline (PBS) so that the count rate is approximately 200-400 kcts.

[4] = dose 1 mg/kg siRNA i.v., lipid/no neutral lipid/CHOL/GM-020 NOF 60/0/36/4, N/P 3
[5] = lipid/no neutral lipid/CHOL/GM-020 NOF 60/0/36/4, N/P 3
[6] = dose 3 mg/kg siRNA i.v., lipid/DSPC/CHOL/AVANTI 880150P 50/28/18/4, N/P 3.43
[7] = dose 3 mg/kg siRNA i.v., lipid/no neutral lipid/CHOL/AVANTI 880150P 50/0/46/4, N/P 3.43
[8] = lipid/DSPC/CHOL/AVANTI 880150P 50/28/18/4, N/P 3.43
[9] = lipid/no neutral lipid/CHOL/AVANTI 880150P 50/0/46/4, N/P 3.43
[10] = lipid/DSPC/CHOL/AVANTI 880150P 25/28/18/4, N/P 1.9
[11] = lipid/DSPC/CHOL/AVANTI 880150P 30/30/36/4, N/P 2.3

Compound	pKa ([2]; pKa)	FVII inhib % [1, 6] [%]	FVII inhib % [1, 7] [%]	Final size (nm) [3, 8] [nm]	PDI [3, 8]	Final size (nm) [3, 9] [nm]	PDI [3, 9]	further results
CCCCC/C=C\C/C=C\CCCCCCCCOCC(CN1CCCC1C)OCCOCCOCCOCCO[C@H]1CC[C@@]2(C)C(=CC[C@H]3[C@@H]4CC[C@H]([C@H](C)CCCC(C)C)[C@@]4(C)CC[C@@H]32)C1 (stereo partly drawn) [E0084]	7.27							FVII inhib % [1, 4]: 60.7%; Final size (nm) [3, 5]: 112.1 nm; PDI [3, 5]: 0.1
CCCCC/C=C\C/C=C\CCCCCCCCOCC(CN1CCCCC1)OCCCCO[C@H]1CC[C@@]2(C)C(=CCC3C2CC[C@@]2(C)C3CC[C@@H]2[C@H](C)CCCC(C)C)C1 (stereo partly drawn) [E0027]	5.7	36.3	30.3	146	0.311	65	0.15	in vivo Factor VII inhibition ([1]; formulation containing the cationic lipid, RNAi construct specific to Factor VII, liver): 30.3%; pKa [2]: 5.71
CCCCC/C=C\C/C=C\CCCCCCCCOCC(CN1CCCCC1)OCCOCCOC(=O)CCC(=O)O[C@H]1CC[C@@]2(C)C(=CCC3C2CC[C@@]2(C)C3CC[C@@H]2[C@H](C)CCCC(C)C)C1 (stereo partly drawn) [E0060]	6.43							FVII inhib % [1, 4]: 0.0%; Final size (nm) [3, 5]: 90.25 nm; PDI [3, 5]: 0.171
CCCCC/C=C\C/C=C\CCCCCCCCCCOCC(CN1CCCCC1)OCCOCCO[C@H]1CC[C@@]2(C)C(=CC[C@H]3[C@@H]4CC[C@H]([C@H](C)CCCC(C)C)[C@@]4(C)CC[C@@H]32)C1 (stereo partly drawn) [E0071]	6.47							FVII inhib % [1, 4]: 30.8%; Final size (nm) [3, 5]: 188.2 nm; PDI [3, 5]: 0.151
CCCCC/C=C\C/C=C\CCCCCCCCOCC(CN1CCC(O[Si](C)(C)C(C)(C)C)C1)OCCOCCO[C@H]1CC[C@@]2(C)C(=CC[C@H]3[C@@H]4CC[C@H]([C@H](C)CCCC(C)C)[C@@]4(C)CC[C@@H]32)C1 (stereo partly drawn) [E0042]		49.1	84.5	83	0.11	73	0.19	pKa ([2]; aqueous buffer series with fluorescent probe TNS, probe TNS, pKa of the cationic lipid, read-out: pKa): 6.7
CCCCC/C=C\C/C=C\CCCCCCCCOCC(CN1CCC(CCOC)CC1)OCCOCCO[C@H]1CC[C@@]2(C)C(=CCC3C2CC[C@@]2(C)C3CC[C@@H]2[C@H](C)CCCC(C)C)C1 (stereo partly drawn) [E0033]			15.3			105	0.05	FVII inhib % ([1]; dose 3 mg/kg siRNA i.v., lipid/DSPC/CHOL/AVANTI 880150P 25/28/18/4, N/P 1.9): −36.4%; Final size (nm) [3, 10]: 161 nm; PDI [3, 10]: 0.16
CCCCCCCC/C=C\CCCCCCCCOCC(CN1CCOCC1)OCCOCCOC(=O)CO[C@H]1CC[C@@]2(C)C(=CC[C@H]3[C@@H]4CC[C@H]([C@H](C)CCCC(C)C)[C@@]4(C)CC[C@@H]32)C1 (stereo partly drawn) [E0125]	5.53							Final size (nm) ([3]; LNP formulation with PLK1 siRNA, helper, neutral and stealth lipid, molar ratio and N/P as in the table, stealth lipid S004, molar ratio 50/38/10/2, N/P 4): 101.5 nm; Final size (nm) ([3]; LNP formulation with PLK1 siRNA, helper, neutral and stealth lipid, molar ratio and N/P as in the table, stealth lipid S004, molar ratio 50/43/5/2, N/P 4): 92.84 nm; Final size (nm) ([3]; LNP formulation with PLK1 siRNA, helper, neutral and stealth lipid, molar ratio and N/P as in the table, stealth lipid S004, molar ratio 50/48/2, N/P 4): 94.13 nm
CCCCC/C=C\C/C=C\CCCCCCCCOCC(CN1CCC(F)(F)CC1)OCCOCCO[C@H]1CC[C@@]2(C)C(=CCC3C2CC[C@@]2(C)C3CC[C@@H]2[C@H](C)CCCC(C)C)C1 (stereo partly drawn) [E0170]		9.3	14.3	133	0.095	170	0.05	
CCCCC/C=C\C/C=C\CCCCCCCCOCC(CN1CCC(OC)CC1)OCCOCCO[C@H]1CC[C@@]2(C)C(=CCC3C2CC[C@@]2(C)C3CC[C@@H]2[C@H](C)CCCC(C)C)C1 (stereo partly drawn) [E0005]		12.2		168	0.069	146	0.07	
CCCCC/C=C\C/C=C\CCCCCCCCOC[C@@H](CN1CCCCC1)OCCOCCO[C@H]1CC[C@@]2(C)C(=CCC3C2CC[C@@]2(C)C3CC[C@@H]2[C@H](C)CCCC(C)C)C1 (stereo partly drawn) [E0034]		81.3	88.1	99	0.16	99	0.16	
CCCCC/C=C\C/C=C\CCCCCCCCOCC(CN1CCCCC1)OCCNC(=O)O[C@H]1CC[C@@]2(C)C(=CC[C@H]3[C@@H]4CC[C@H]([C@H](C)CCCC(C)C)[C@@]4(C)CC[C@@H]32)C1 (stereo partly drawn) [E0102]	6.31							Final size (nm) ([3]; LNP formulation with PLK1 siRNA, helper, neutral and stealth lipid, molar ratio and N/P as in the table): 94.69 nm
CCCCC/C=C\C/C=C\CCCCCCCCOCC(CN1CCN(C(=O)OC(C)(C)C)CC1)OCCOCCO[C@H]1CC[C@@]2(C)C(=CC[C@H]3[C@@H]4CC[C@H]([C@H](C)CCCC(C)C)[C@@]4(C)CC[C@@H]32)C1 (stereo partly drawn) [E0002]		10.4		109	0.221			FVII inhib % ([1]; dose 1 mg/kg siRNA i.v., lipid/DSPC/CHOL/AVANTI 880150P 50/28/18/4, N/P 3.43): −0.3%
CCCCC/C=C\C/C=C\CCCCCCCCOCC(CN1CC2CCCC2C1)OCCOCCO[C@H]1CC[C@@]2(C)C(=CC[C@H]3[C@@H]4CC[C@H]([C@H](C)CCCC(C)C)[C@@]4(C)CC[C@@H]32)C1 (stereo partly drawn) [E0022]		49.4	87.8	93	0.143	84	0.192	
CCCCC/C=C\C/C=C\CCCCCCCCOCC(CN1CCC[C@@H]1COC)OCCOCCO[C@H]1CC[C@@]2(C)C(=CC[C@H]3C4CC[C@H]([C@H](C)CCCC(C)C)[C@@]4(C)CC[C@@H]32)C1 (stereo partly drawn) [E0037]		69.3	66.2	96	0.24	117	0.1	
CCCCC/C=C\C/C=C\CCCCCCCCOCC(CN1CCNCC1)OCCOCCO[C@H]1CC[C@@]2(C)C(=CC[C@H]3[C@@H]4CC[C@H]([C@H](C)CCCC(C)C)[C@@]4(C)CC[C@@H]32)C1 (stereo partly drawn) [E0012]								FVII inhib % ([1]; dose 3 mg/kg siRNA i.v., lipid/DSPC/CHOL/AVANTI 880150P 30/30/36/4, N/P 2.3): 9.3%; Final size (nm) [3, 11]: 220 nm; PDI [3, 11]: 0.105
CCCCC/C=C\C/C=C\CCCCCCCCOCC(CN1CCCCC1)OCCOCCOC(=O)O[C@H]1CC[C@@]2(C)C(C=CC3C2CC[C@@]2(C)C3CC[C@@H]2[C@H](C)CCCC(C)C)C1 (stereo partly drawn) [E0056]	6.33							pKa [2]: 5.84
CCCCC/C=C\C/C=C\CCCCCCCCOCC(CN1CCC(N2CCOCC2)C1)OCCOCCO[C@H]1CC[C@@]2(C)C(=CC[C@H]3[C@@H]4CC[C@H]([C@H](C)CCCC(C)C)[C@@]4(C)CC[C@@H]32)C1 (stereo partly drawn) [E0038]		−2.4	−6.2	116	0.25	115	0.08	

Reference: US9301923B2, “Lipids, lipid compositions, and methods of using them” (NOVARTIS AG, priority 2009, dated 2016)
